Measured values as given in patent US11175204B1, “7-hydroxycoumarin-based cell-tracking reagents” (LIFE TECHNOLOGIES CORPORATION, priority 2009, dated 2021).

Test system: Human peripheral blood mononuclear cells
Assay: Cell proliferation tracking by dye dilution, flow cytometry (Biological Application Example 1)
Assay type: cell-based
Settings: 1 μM staining; for loss of fluorescence over 24 hours: initial 24 hours after staining; for fluorescence histogram from stimulated cells / fluorescence intensity and coefficient of variation from unstimulated cells: six days after staining
Method: Human peripheral blood mononuclear cells were isolated from whole blood using a Ficoll density gradient, then washed and resuspended in phosphate buffered saline (DPBS) at a concentration of 10^6/mL. The general procedure used is as follows: • 1. Dilute 8 mL of whole blood into 8 mL of 1×PBS and mix well. • 2. Add 6 mL Ficoll-Paque Plus to a 15-mL centrifuge tube, then layer 8 mL diluted whole blood on top. • 3. Centrifuge 30 min at 400 g, then carefully remove the lymphocyte layer. • 4. Resuspend cells in 25 mL DPBS buffer in a 50-mL conical tube. • 5. Spin tube for 5 min at 200 g, pour off supernatant and resuspend in 25 mL DPBS. • 6. Repeat wash step and resuspend in 300 μL of Isolation Buffer. • 7. Count cells on cellometer; adjust cell concentration to 10^6 cells/mL
Compound 2, Compound 6, Compound 7, and Carboxyfluorescein Diacetate Succinimidyl ester (CFSE) were each dissolved in anhydrous dimethylsulfoxide to a concentration of 1 mM. Aliquots, 4-mL, of cells were then stained with 4 μL of Compound 2, Compound 6, Compound 7, or CFSE for final staining concentrations of 1 μM. Cells were incubated with agitation at room temperature for 20 minutes. Then 2 mL of heat-inactivated Fetal Bovine Serum (FBS) were added, followed by 5 more minutes of incubation. Cells were washed twice with DPBS+10% FBS and resuspended in 4 mL of OpTmizer T-Cell Expansion Buffer (GIBCO) containing 2 mM L-glutamine, and 100,000 units penicillin and 100 mg streptomycin per liter. Aliquots (1-mL) of cells stained with Compound 2, Compound 6, Compound 7, or CFSE, and a 1-ml aliquot of unstained cells were then dispensed into a 24-well polystyrene plate and incubated at 37° C. and 5% CO2 for 24 hours. One of the following four stimulus conditions were then applied individually to the cells: i) 200 ng anti-CD3 (2 μL), incubated on ice for 30 min, then transferred to culture plate and add 100 ng iL-2 per mL of culture media, ii) 5 μg/mL Concanavalin A (5 μL of a 1 mg/mL solution), iii) 75 μL CD3/CD28 T cell expander beads, or iv) no stimulus. The cells were then incubated for 72 additional hours at 37° C. and 5% CO2. Aliquots (500-μL) of cells from each treatment were analyzed immediately following staining, and at 24 hours and six days after staining.
Aliquots (500 μL) of cells were washed and resuspended in PBS, stained with mouse anti-human CD3 or CD8 R-phycoerythrin primary antibody conjugates for 15 minutes, then washed and stained with SYTOX® Red Dead Cell Stain for 5 minutes. Cells were then run through the Becton Dickinson (BD) LSRII Flow Cytometer. Fluorescence was collected using three lasers: the 405 nm excitation laser with 450/50 bandpass emission filter, the 488 nm excitation laser with 585/42 bandpass emission filter, and the 633 nm excitation laser with 660/20 bandpass emission filter. A gating strategy was employed to limit analysis to only the cells of interest. Cells were gated first on SYTOX® Red Dead Cell Stain negative (live) cells, then on R-phycoerythrin positive cells (CD3+ or CD8+ positive). […] CountBright™ Absolute Counting Beads were evaluated in each fluorescence histogram prior to each run to account for day-to-day instrument variations.

Row | Molecule | loss of fluorescence over 24 hours | fluorescence histogram from stimulated cells | fluorescence intensity and coefficient of variation from unstimulated cells
1 | CC(=O)Oc1cc2oc(=O)c(C(=O)ON3C(=O)CCC3=O)cc2cc1Cl [Compound 2] | very little loss of fluorescence | distinct peaks corresponding to each generation of cells | little change from initial staining
2 | CC(=O)Oc1cc2oc(=O)c(C(=O)N3CCC(C(=O)ON4C(=O)CCC4=O)CC3)cc2cc1Cl [Compound 6] | very little loss of fluorescence | distinct peaks corresponding to each generation of cells | little change from initial staining
3 | CC(=O)OCOc1cc2oc(=O)c(C(=O)N3CCC(C(=O)ON4C(=O)CCC4=O)CC3)cc2cc1Cl [Compound 7] | very little loss of fluorescence | distinct peaks corresponding to each generation of cells | little change from initial staining
4 | Carboxyfluorescein Diacetate Succinimidyl ester [CFSE, reference compound] | moderate fluorescence loss | distinct peaks corresponding to each generation of cells | little change from initial staining
